# Data from PubChem BioAssay (NCI).
#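 96-well plates; 48 h exposure; 5 concentrations. Endpoints by linear interpolation between flanking doses. Not reached: highest tested concentration assigned. TGI is the concentration that stops growth completely.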
# Legend:
# Test in all cases: NCI tumour cell line growth inhibition, 48 h
# [1] = system: MCF7 breast
# [2] = system: SF-539 CNS
# [3] = system: SW-620 colon
# [4] = system: NCI/ADR-RES ovarian
# [5] = system: IGROV1 ovarian
# [6] = system: SR leukemia
# [7] = system: SK-MEL-5 melanoma
# [8] = system: SK-MEL-2 melanoma
# [9] = system: OVCAR-4 ovarian
# [10] = system: HT29 colon
SMILES,TGI [1] [µM],TGI [2] [µM],TGI [3] [µM],TGI [4] [µM],TGI [5] [µM],TGI [6] [µM],TGI [7] [µM],TGI [8] [µM],TGI [9] [µM],TGI [10] [µM]
CCCCC(=C=C(C)CO)C1CCCN1C(=O)OC(C)(C)C (configuration not stated),43.5,34.5,89.8,42.5,43.6,31.5,29.8,30.6,39.3,34.3
CC(C)(C)c1ccc(O)c(C(c2ccc([N+](=O)[O-])cc2)c2cc(C(C)(C)C)ccc2O)c1,3.83,3.46,4.71,7.72,4.37,5.47,–,3.36,3.91,4.47
COc1ccc(C(=O)c2c(-c3ccccc3NC(=O)C(F)(F)F)[nH]c3ccccc23)cc1,17.2,4.41,16.7,28.8,24.3,8.62,22,14.9,19.2,16.5
C/C=C/c1cc2c(c(=O)o1)C(=O)[C@@H](O)[C@H](C)O2,14.8,33.6,22.9,32.3,23.3,–,29.4,34.2,29.7,44.6
CC(C(=O)NCCNC(=O)CCC(=O)N(C)O)C(=O)NCCNC(=O)CCC(=O)N(C)O,> 100,–,> 100,> 100,> 100,> 100,> 100,> 100,> 100,> 100
C=CCOC(=O)c1c(C)n([O-])c2cc(Cl)c(Cl)cc2[n+]1=O,60.8,45.7,–,46.9,22.8,13.1,36.8,39.4,19.1,36.8
CC(C)(C)c1cc(C(=O)C2Cc3ccccc3C(=O)O2)cc(C(C)(C)C)c1O (configuration not stated),38.6,31.7,50.4,50.5,32.6,51.2,25.1,23.9,65.7,35.5
O=C1CCCCC/C1=C\c1cccc([N+](=O)[O-])c1,> 100,48.7,> 100,95.5,50.4,39.9,40.4,> 100,–,> 100
CCOC(=O)C1(C#N)C2(C#N)C(N)=NC(ON=C(C)C)(ON=C(C)C)C12C#N (configuration not stated),> 100,–,> 100,> 100,> 100,> 100,> 100,> 100,> 100,> 100
CCCCCCCCCC(O)CC(=O)c1c(O)cccc1O (configuration not stated),50.3,40.7,> 100,38.5,36.8,–,38,35.7,35.2,43
COC(=O)[C@H]1[C@@H](O)[C@@]2(O)c3c(OC)cc(OC)cc3O[C@@]2(c2ccc3c(c2)OCO3)[C@@H]1c1ccccc1,0.0618,0.0279,> 22.2,0.241,0.666,–,0.0688,0.45,> 10.1,0.273
